From patent US9987296B2, “Compositions including anthocyanin or anthocyanidin for the prevention or treatment of Articular cartilage-associated conditions” (priority 2008, dated 2018)
Entries after “also recorded” stand apart in the source; their conditions may differ.

Legend:
Type in all cases: cell-based
[1] = system: human cartilage explants; assay: Cartilage breakdown as determined by GAG release in human cartilage explants; conditions: for GAG release under basal conditions: high dose (50 ug/mL) alone, no IL-1; for IL-1 induced GAG release (chondroprotection): human cartilage explants, IL-1 plus test agent 5 or 50 ug/mL, 72 hours
Excerpt: Human osteoarthritic cartilage samples were procured through the Tissue Procurement Facility of the University Hospitals of Cleveland/Case Western Reserve University and with prior approval of the IRB of University Hospitals of Cleveland. The cartilage samples were obtained from patients undergoing total anthroplasty of the knee due to degenerative joint diseases. In all cases care was taken to use only “macroscopically normal” cartilage samples. No samples were exposed to radiation solely for the purpose of these studies but almost all patients will have received X-rays as part of their clinical presentation during the execution of care. The same donor tissue was not used in all experiments but untreated controls were included in all protocols.
Full thickness cartilage slices (20-25 mg) were dissected from the cartilage using a sterile scalpel blade. Four to five cartilage pieces that were approximately equal in size and weight were transferred to each well of a 24-well, flat bottom plate (Nuns, Denmark) containing DMEM:F12 (1:1) supplemented with antibiotics and 10% FCS and cultured for 24 hours. Subsequently the cartilage explants were cultured overnight in serum free media. The cartilage explants were treated with IL-β alone or with IL-β positive test agents for 72 hours in serum free media. Explants cultured in the absence of IL-β or test agents were used as controls. Additionally, the actions of kuromanin or cyanidin chloride were examined independently of IL-β exposure (5 ng/mL). Where appropriate, explants were exposed to test agents 15 minutes prior to the treatment with IL-β. Total glycosaminoglycan present in the culture supernatant was estimated as described below.
At the end of culture period, the culture medium was collected from each group. A 50 uL aliquot of collected supernatant from each sample was utilized to estimate the total glycosaminoglycan (GAG) concentration by a colorimetric method employing a DMMB as previously described (Miller M J S et al., BMC Complementary and Alternative Med 2006 6; 13). Color intensity was read spectrophotometrically at 535 nm using the Lambda 25 spectrophotometer (Perkin-Elmer, CT) and the values were derived from a standard curve prepared using different concentrations of chondroitin sulfate. Results are expressed as micrograms of glycosaminoglycan released per mg of cartilage tissue.

[2] = system: IGF-1; assay: IGF-1 gene expression in human synovial explants; conditions: for IGF-1 gene expression and production: synovial explants, together with glucose, overall conclusion
Experimental: Synovial explants (N=6) were harvested from human donors undergoing either uni-compartmental or total knee replacement. In all but the first experiment, the specimens were trimmed of extraneous adipose tissue and washed in low glucose DMEM (1 g/l). The specimens in the first experiment were not trimmed of excess adipose tissue and were washed in high-glucose DMEM (4.5 g/L).
In the first experiment (n=2), the specimens were cultured for 48 hours in 0.1% calf serum and either high- or low-glucose DMEM. In the second tow experiments (n=4), the specimens were cultured for 48 hours in serum-free ITS (Insulin, Transferrin, Selenium) media diluted with either high- or low-glucose DMEM. IGF-1 gene expression. Briefly, total RNA was extracted from synovial tissue using RNeasy Total RNA Kit (Qiagen, Inc., Santa Clarita, Calif.). Real-time quantitative RT-PCR was done using Taqman RT-PCR reagents (Applied Biosystems, Foster City, Calif.).
(§1) Expression of IGF-1 was normalized to that of the housekeeping gene GAPDH. IGF-1 ELISA. Human IGF-1 protein secretion into the culture media was measured by ELISA (RD Systems, Minneapolis, Minn.). Synovial culture media was centrifuged to remove any particulates. Controls and samples were added to ELISA wells which were pre-coated with a monoclonal antibody specific for IGF-1. Any IGF-1 present would be expected to be bound by the immobilized antibody. After washing away any unbound substances, an enzyme-linked polyclonal antibody specific for IGF-1 was added to the wells. Following a wash to remove any unbound antibody-enzyme reagent. a substrate solution was added to the wells. The medial developed a color intensity in proportion to the amount of IGF-1 bound in the initial step. Optical density of each well was determined by using a microplate reader set to 450 nm. IGF-1 activity obtained by serial dilution of known protein concentrations.
(§2) Synovial explants (n=6) were harvested from human donors undergoing total knee replacement. The specimens were trimmed of extraneous adipose tissue. In the two experiments, the synovial specimens were washed in low-glucose DMEM (1 g/L) for a few hours and then placed in the assigned treatment groups. In subsequent experiments the synovial specimens were washed in low-glucoses DMEM for 24 hours before treatment.
(§3) In all experiments (n=4), the specimens were cultured for 48 hours in serum-free ITS (Insulin, Transferrin, Selenium) media diluted with either high- or low-glucose DMEM. In addition, various anthocyanins were added to both the high- and low-glucose groups. Low-glucose alone acted as a control group. After the two experiments, the level of media was adjusted relative to the weight of the tissue.
Briefly, total RNA was extracted from synovial tissue using RNeasy Total RNA Kit (Qiagen Inc., Santa Clarita, Calif.). Real-time quantitative RT-PCR was done using ‘ragman RT-PCR. reagents (Applied Biosystems, Foster City, Calif.). Expression of IGF-1 was normalized to that of the housekeeping gene GAPDH. The results of IGF-1 gene expression are only presented if detectable levels of low glucose alone were present and able to serve as a control group for relative-fold change in expression.

[3] = system: IGF-1; assay: IGF-1 ELISA of culture media of human synovial explants; conditions: for IGF-1 protein release in media: high vs low glucose
Experimental: as §2, §3
as §1, with “Human IGF-1” for “Expression of IGF-1 was normalized to that of the housekeeping gene GAPDH. IGF-1 ELISA. Human IGF-1”, “by ELISA (R & D Systems, Minneapolis,” for “by ELISA (RD Systems, Minneapolis,”, “unbound antibody-enzyme reagent, a substrate” for “unbound antibody-enzyme reagent. a substrate”, “wells. The media developed a” for “wells. The medial developed a”, “nm. IGF-1 concentration in the sample was calculated by a standardized curve of IGF-I activity obtained” for “nm. IGF-1 activity obtained”

[4] = FIG. 22, volume titrated to tissue weight, in high glucose
[5] = increasing glucose concentration, synovial tissue

`Oc1cc(O)c2cc(O)c(-c3ccc(O)c(O)c3)[o+]c2c1` [Cyanidin chloride] was tested, and the “GAG release under basal conditions” value [1] was “not evident”, the “IL-1 induced GAG release (chondroprotection)” value (“IL-1 induced GAG release” below) ([1]; listed as CC1) was “blocked IL-1 induced GAG release” and the “IL-1 induced GAG release” value ([1]; listed as cyanidin) was “able to prevent GAG (glycosaminoglycan) release compared to control; also recorded: effective chondroprotective agents limiting the degradation of human cartilage against the catabolic effects of IL-1”. For the same compound, the “IL-1 induced GAG release” value ([1]; listed as cyanidin chloride) was “chondroprotective; also recorded: blocked”, the “IGF-1 gene expression relative to low glucose alone” value ([2]; FIG. 27, in the presence of high glucose) was “highest expression levels” and the “IGF-1 gene expression and production” value [2] was “elevate IGF-1 gene expression and production”. For the same compound, the “IGF-1 protein levels in media” value ([3]; FIG. 21, 7 ml of media regardless of sample weight, with High Glucose, listed as Cyanidin) was “highest IGF-1 protein levels”, the “IGF-1 protein levels in media” value ([3]; FIG. 21, 7 ml of media regardless of sample weight, with High Glucose, listed as cyanidin) was “highest levels of IGF-1 in media” and the “IGF-1 protein levels in media” value ([3]; FIG. 22, volume titrated to tissue weight, combined with low glucose, listed as Cyanidin) was “greatest effect”. For the same compound, the “IGF-1 protein levels in media” value ([3]; FIG. 22, volume titrated to tissue weight, combined with low glucose, listed as cyanidin) was “greatest production of IGF-1 protein levels”, the “IGF-1 protein levels in media” value [3, 4] was “inhibitory” and the “level of IGF-1 protein in media” value ([3]; FIG. 26, lower anthocyanin concentration (5 mM), in the presence of low glucose) was “highest level of IGF-1 protein”.
In the case of `OC[C@H]1O[C@@H](Oc2cc3c(O)cc(O)cc3[o+]c2-c2ccc(O)c(O)c2)[C@H](O)[C@@H](O)[C@@H]1O.[Cl-]` [Kuromanin chloride], the “GAG release under basal conditions” value [1] is reported as “some catabolic effects that may reflect cell toxicity; also recorded: tendency for the high dose of kuromanin to promote GAG release”, the “IL-1 induced GAG release” value [1] is reported as “able to prevent GAG (glycosaminoglycan) release compared to control; also recorded: effective chondroprotective agents limiting the degradation of human cartilage against the catabolic effects of IL-1; also recorded: blocked” and the “IL-1 induced GAG release” value ([1]; listed as KuCl) is reported as “blocked IL-1 induced GAG release”. For the same compound, the IGF-1 gene expression ([2]; FIG. 24, in the presence of high glucose) was “inhibitory”, the “IGF-1 gene expression relative to low glucose alone” value ([2]; FIG. 24, in the presence of low glucose) was 3 fold and the “IGF-1 gene expression and production” value [2] was “elevate IGF-1 gene expression and production”. For the same compound, the “IGF-1 protein levels in media” value ([3]; FIG. 22, volume titrated to tissue weight, combined with low glucose, listed as Kuromanin) was “greatest effect”, the “IGF-1 protein levels in media” value ([3]; FIG. 22, volume titrated to tissue weight, combined with low glucose, listed as kuromanin) was “greatest production of IGF-1 protein levels” and the “IGF-1 protein levels in media” value [3, 4] was “inhibitory”.
For `O=C[C@H](O)[C@@H](O)[C@H](O)[C@H](O)CO` [glucose], the “IGF-1 gene expression relative to low glucose alone” value ([2]; FIG. 24, High glucose alone) was “over 4 fold”, the “IGF-1 gene expression relative to low glucose alone” value ([2]; FIG. 27, High Glucose alone, grossly inflamed sample (RH)) was “highest expression levels” and the “increase in IGF-1 gene expression compared to low glucose alone” value ([2]; FIG. 28, High Glucose alone) was 12 fold. The “increase of IGF-1 gene expression” value ([2]; high (4.5 g/L) vs low (1 g/L) glucose, 48 hours, three donors) was “up to 5 fold”, the IGF-1 gene expression [2, 5] was “increase both IGF-1 gene expression and IGF-1 release; also recorded: significantly increase; also recorded: consistently increased IGF-1 gene expression” and the “level of IGF-1 protein in media” value ([3]; FIG. 23, volume titrated to tissue weight, High Glucose alone (highest level)) was “above 2.00 ng/ml”. The “level of IGF-1 protein in media” value ([3]; FIG. 25, volume titrated to tissue weight, High Glucose alone) was “highest level of IGF-1 protein”, the “level of IGF-1 protein in media” value ([3]; FIG. 26, High Glucose alone) was “highest level of IGF-1 protein” and the IGF-I protein expression ([3]; High Glucose alone, across the experiments of Example 7) was “most consistent increase in IGF-I protein expression”. For the same compound, the “IGF-1 levels in media, on average” value ([3]; high (4.5 g/L) vs low (1 g/L) glucose, 48 hours, 6 donors) was “more than doubled”, the “increase of IGF-1 in media, tissue that responded the most” value ([3]; high glucose, donor undergoing unicompartmental arthroplasty) was 5 × and the “IGF-1 protein release in media” value ([3]; four donors) was “significant response”. The “IGF-1 protein release in media” value ([3]; two donors) was “no effect on IGF-1 protein release in media” and the IGF-1 secretion [3, 5] was “increase both IGF-1 gene expression and IGF-1 release; also recorded: increased IGF-1 secretion in synovial tissue, but in a donor dependent fashion”.
